Measurements published in patent publication US20230398105A1, “TREATMENT REGIMENS FOR PARKINSON'S DISEASE” (BIAL - PORTELA & Cª, S.A., priority 2020, published 2023).

Assays:
[1] = system: Parkinson's disease patients; experiment: Pooled BIPARK-I and BIPARK-II post-hoc analysis: change from baseline in absolute off-time; format: in vivo, human; conditions: after 14-15 weeks
Text: The term “absolute off-time” is the combined total daily of 30-minute periods spent in an “off” state. Conversely, the term “absolute on-time” is the combined total daily of 30-minute periods spent in an “on” state. Periods where the patient is asleep are excluded from either group.
The term “unpredictable motor fluctuations”, also known as “unpredictable on/off fluctuations” or “on/off phenomenon”, relates to the unpredictable re-emergence or worsening of symptoms at any time, such as severe troublesome dyskinesias, severe/unpredictable end-of-dose motor fluctuations, painful “off” dystonia and morning akinesia (Fabbri M. et al., Mov. Disord., 2018, 33, 1528-1539). Unpredictable motor fluctuations are unrelated to the timing of the next dose and may occur at any time during the day. […] Within the clinical trials analysed, unpredictable on/off fluctuations were defined as present if clinicians scored “NO” at the UPDRS item 36 (“Are “off” periods predictable?”), or “YES” in at least one of the following UPDRS items: 37 (“Are “off” periods unpredictable?”) and 38 (“Do “off” periods come on suddenly, within a few seconds?”).
(§1) The results of the two multi-centered double-blinded (DB) randomized placebo-controlled trials BIPARK-I (Ferreira et al., Lancet Neurol., 2016, 15, 154-65) and BIPARK-II (Lees et al., JAMA Neurol., 2017, 74, 197-206) were pooled together. Both clinical trials were performed to evaluate the efficacy and safety of opicapone in addition to levodopa-treated patients with moderate end-of-dose motor fluctuations. All patients had signs of end-of-dose deterioration for at least 4 weeks before screening, with a mean total awake off-time (state of akinesia or decreased mobility) of at least 1.5 hours, excluding morning akinesia. Eligible patients were randomized at baseline to the double-blind phase using a computer-generated scheme (administered by Cenduit, LLC) in a ratio of 1:1:1 to the addition of oral capsular opicapone, 25 mg/day or 50 mg/day, or matching placebo. The double-blind phase assessments occurred at 4-week intervals and the total duration of the double-blind phase could be 14 to 15 weeks. Full details of the inclusion and exclusion criteria and on study design are described in Ferreira et al., Lancet Neurol., 2016, 15, 154-65 and Lees et al., JAMA Neurol., 2017, 74, 197-206, which are incorporated herein by reference. Reductions in the daily dose (but not frequency) of levodopa were allowed between baseline and 3 to 4 weeks after baseline according to the clinical response but were not permitted thereafter.
(§2) Populations undergoing analysis included all randomized patients who took at least 1 dose of study medication and had at least 1 post-baseline off-time assessment. The post-hoc analysis described herein, analyzed Parkinson's disease patients with (“YES”) and without (“NO”) unpredictable on/off fluctuations.
(§3) The primary efficacy variable was the change from baseline in absolute off-time. As secondary end-point, the inventors analyzed the absolute on-time as well as the proportions of patients achieving at least a 1-hour reduction in absolute off-time and/or the proportions of patients achieving at least a 1-hour increase in absolute on-time at the end of the double-blind phase, defined as “responders”.
(§4) Changes from baseline were analysed using ANCOVA with treatment group included as fixed effect factor and the baseline scale score as a covariate. CMH-Test was used to assess differences between OPC dose levels and Placebo taking study into account as a factor.
(§5) Opicapone was synthesised as described in WO 2013/089573 and formulated into 25 or 50 mg capsules as described in WO 2010/114405. Study treatment (opicapone or matching placebo) was taken orally once daily in the evening at least 1 hour after the last daily dose of levodopa/DDCI (considered the bedtime dose).

[2] = system: Parkinson's disease patients; experiment: Pooled BIPARK-I and BIPARK-II: OFF-time and ON-time responder rates (≥1 hour) at endpoint; format: in vivo, human
Text: The term “responders” is defined as patients achieving at least a 1-hour reduction in absolute off-time and/or the proportions of patients achieving at least a 1-hour increase in absolute on-time at the end of the double-blind phase of the trial.
as §1, §2, §3, §4, §5

[3] = system: Parkinson's disease patients; experiment: Pooled BIPARK-I and BIPARK-II: treatment-emergent adverse events in the safety set; format: in vivo, human
Text: The term “treatment-emergent adverse events” is defined as any event not present before exposure to the study drug or any event already present that worsens in either intensity or frequency after first intake of study drug until 2 weeks after last intake of the study drug.
as §1, §5

[4] = system: Parkinson's disease patients; conditions: BIPARK-I; patients with end-of-dose motor fluctuations; cited from earlier work
[5] = 25 mg, NO: without unpredictable motor fluctuations
[6] = 25 mg, YES: with unpredictable motor fluctuations
[7] = 50 mg, NO: without unpredictable motor fluctuations
[8] = 50 mg, YES: with unpredictable motor fluctuations
[9] = 25 mg, NO: without unpredictable motor fluctuations, N = 143
[10] = 25 mg, YES: unpredictable motor fluctuations, N = 98
[11] = 50 mg, NO: without unpredictable motor fluctuations, N = 175
[12] = 50 mg, YES: unpredictable motor fluctuations, N = 87

With `Cc1c(Cl)c(C)[n+]([O-])c(Cl)c1-c1noc(-c2cc(O)c(O)c([N+](=O)[O-])c2)n1` [opicapone, 2,5-dichloro-3-[5-(3,4-dihydroxy-5-nitrophenyl)-1,2,4-oxadiazol-3-yl]-4,6-dimethylpyridine 1-oxide] the “Absolute off-time, change from baseline vs. placebo” value ([1]; 25 mg vs. placebo, NO: patients without unpredictable motor fluctuations) was -20.4 min, the “Absolute off-time, change from baseline vs. placebo” value ([1]; 25 mg vs. placebo, Total patients) was -40.7 min and the “Absolute off-time, change from baseline vs. placebo” value ([1]; 25 mg vs. placebo, YES: patients with unpredictable motor fluctuations) was -61 min. The “Absolute off-time, change from baseline to end-point” value ([1]; 25 mg, NO: patients without unpredictable motor fluctuations) was -73.6 min, the “Absolute off-time, change from baseline to end-point” value ([1]; 25 mg, Total patients) was -98.7 min and the “Absolute off-time, change from baseline to end-point” value ([1]; 25 mg, YES: patients with unpredictable motor fluctuations) was -123.8 min. The “Absolute off-time, change from baseline vs. placebo” value ([1]; 50 mg vs. placebo, Total patients) was -64 min, the “Absolute off-time, change from baseline to end-point” value ([1]; 50 mg, NO: patients without unpredictable motor fluctuations) was -104.7 min and the “Absolute off-time, change from baseline to end-point” value ([1]; 50 mg, Total patients) was -122 min. For the same compound, the “Absolute off-time, change from baseline to end-point” value ([1]; 50 mg, YES: patients with unpredictable motor fluctuations) was -139.3 min, the “responders, off-time reduced (≥1 hour)” value [2, 5] was 58.7% and the “responders, on-time increased (≥1 hour)” value [2, 5] was 53.8%. The “responders, off-time reduced (≥1 hour)” value [2, 6] was 65.3%, the “responders, on-time increased (≥1 hour)” value [2, 6] was 69.4% and the “responders, off-time reduced (≥1 hour)” value [2, 7] was 68.6%. The “responders, on-time increased (≥1 hour)” value [2, 7] was 61.7%, the “responders, off-time reduced (≥1 hour)” value [2, 8] was 65.5% and the “responders, on-time increased (≥1 hour)” value [2, 8] was 66.7%. For the same compound, the “Incidence of Related Serious TEAEs” value [3, 9] was 0 number (%), the “Incidence of Serious TEAEs” value [3, 9] was 2 (0.8) number (%) and the “Incidence of any TEAEs leading to Discontinuation” value (“Incidence of any TEAEs leading” for short) [3, 9] was 7 (2.9) number (%). For the same compound, the “TEAE: Anxiety” value [3, 9] was 0 number (%), the “TEAE: Back pain” value [3, 9] was 4 (2.7) number (%) and the “TEAE: Constipation” value [3, 9] was 9 (6.2) number (%). The “TEAE: Dizziness” value [3, 9] was 7 (4.8) number (%), the “TEAE: Dry mouth” value [3, 9] was 8 (5.5) number (%) and the “TEAE: Dyskinesias” value [3, 9] was 14 (9.6) number (%). For the same compound, the “TEAE: Falls” value [3, 9] was 3 (2.1) number (%), the “TEAE: Headache” value [3, 9] was 6 (4.1) number (%) and the “TEAE: Hypertension” value [3, 9] was 6 (4.1) number (%). For the same compound, the “TEAE: Insomnia” value [3, 9] was 11 (7.5) number (%), the “TEAE: Nausea” value [3, 9] was 5 (3.4) number (%) and the “TEAE: Parkinson's disease” value [3, 9] was 4 (2.7) number (%). For the same compound, the “TEAE: Somnolence” value [3, 9] was 3 (2.1) number (%), the “TEAE: Urinary tract infection” value [3, 9] was 1 (0.7) number (%) and the “TEAE: ↑CPK (Blood creatine phosphokinase)” value (“TEAE: ↑CPK” for short) [3, 9] was 4 (2.7) number (%). For the same compound, the “Incidence of Serious TEAEs” value [3, 10] was 3 (1.2) number (%), the “Incidence of any TEAEs leading” value [3, 10] was 6 (2.5) number (%) and the “TEAE: Anxiety” value [3, 10] was 5 (5.1) number (%). The “TEAE: Back pain” value [3, 10] was 1 (1.0) number (%), the “TEAE: Constipation” value [3, 10] was 3 (3.1) number (%) and the “TEAE: Dizziness” value [3, 10] was 3 (3.1) number (%). The “TEAE: Dry mouth” value [3, 10] was 8 (8.2) number (%), the “TEAE: Dyskinesias” value [3, 10] was 25 (25.5) number (%) and the “TEAE: Falls” value [3, 10] was 8 (8.2) number (%). The “TEAE: Headache” value [3, 10] was 2 (2.0) number (%), the “TEAE: Hypertension” value [3, 10] was 4 ( 4.1) number (%) and the “TEAE: Insomnia” value [3, 10] was 6 (6.1) number (%). For the same compound, the “TEAE: Nausea” value [3, 10] was 6 (6.1) number (%), the “TEAE: Parkinson's disease” value [3, 10] was 7 (7.1) number (%) and the “TEAE: Somnolence” value [3, 10] was 7 (7.1) number (%). The “TEAE: Urinary tract infection” value [3, 10] was 3 (3.1) number (%), the “TEAE: Weight decrease” value [3, 10] was 0 number (%) and the “TEAE: ↑CPK” value [3, 10] was 3 (3.1) number (%). For the same compound, the “Incidence of Serious TEAEs” value [3, 11] was 6 (2.3) number (%), the “Incidence of any TEAEs leading” value [3, 11] was 13 (4.9) number (%) and the “TEAE: Back pain” value [3, 11] was 1 (0.6) number (%). The “TEAE: Constipation” value [3, 11] was 10 (5.6) number (%), the “TEAE: Dizziness” value [3, 11] was 5 (2.8) number (%) and the “TEAE: Dry mouth” value [3, 11] was 5 (2.8) number (%). The “TEAE: Dyskinesias” value [3, 11] was 35 (19.7) number (%), the “TEAE: Falls” value [3, 11] was 3 (1.7) number (%) and the “TEAE: Headache” value [3, 11] was 7 (3.9) number (%). For the same compound, the “TEAE: Hypertension” value [3, 11] was 7 (3.9) number (%), the “TEAE: Insomnia” value [3, 11] was 6 (3.4) number (%) and the “TEAE: Nausea” value [3, 11] was 6 (3.4) number (%). For the same compound, the “TEAE: Parkinson's disease” value [3, 11] was 5 (2.8) number (%), the “TEAE: Somnolence” value [3, 11] was 3 (1.7) number (%) and the “TEAE: Urinary tract infection” value [3, 11] was 9 (5.1) number (%). For the same compound, the “TEAE: Weight decrease” value [3, 11] was 9 (5.1) number (%), the “TEAE: ↑CPK” value [3, 11] was 12 (6.7) number (%) and the “Incidence of Related Serious TEAEs” value [3, 12] was 1 (0.4) number (%). For the same compound, the “Incidence of Serious TEAEs” value [3, 12] was 7 (2.6) number (%), the “Incidence of any TEAEs leading” value [3, 12] was 10 (3.8) number (%) and the “TEAE: Anxiety” value [3, 12] was 3 (3.4) number (%). The “TEAE: Back pain” value [3, 12] was 2 (2.3) number (%), the “TEAE: Constipation” value [3, 12] was 7 (8.0) number (%) and the “TEAE: Dizziness” value [3, 12] was 4 (4.6) number (%). The “TEAE: Dry mouth” value [3, 12] was 3 (3.4) number (%), the “TEAE: Dyskinesias” value [3, 12] was 19 (21.8) number (%) and the “TEAE: Falls” value [3, 12] was 5 (5.7) number (%). For the same compound, the “TEAE: Headache” value [3, 12] was 3 (3.4) number (%), the “TEAE: Hypertension” value [3, 12] was 1 (1.1) number (%) and the “TEAE: Insomnia” value [3, 12] was 3 (3.4) number (%). The “TEAE: Nausea” value [3, 12] was 2 (2.3) number (%), the “TEAE: Parkinson's disease” value [3, 12] was 1 (1.1) number (%) and the “TEAE: Somnolence” value [3, 12] was 2 (2.3) number (%). For the same compound, the “TEAE: Urinary tract infection” value [3, 12] was 1 (1.1) number (%), the “TEAE: Weight decrease” value [3, 12] was 1.1 (0.4) number (%) and the “TEAE: ↑CPK” value [3, 12] was 1 (1.1) number (%). The “Safety in patients with unpredictable motor fluctuations” value ([3]; patients with unpredictable motor fluctuations) was “safe”, the “ability to reduce the time patients spent in the off state, vs. entacapone” value [4] was “non-inferior” and the “ability to reduce the time patients spent in the off state, vs. placebo combined with levodopa/DCCI” value [4] was “superior”.
